Source: US7923465B2, “Cannabinoid receptor ligands, pharmaceutical compositions containing them, and process for their preparation” (priority 2005, dated 2011)

Key:
[1] = target: hCB2 (Homo sapiens, UniProt P34972); assay: In vitro binding assay using hCB2-CHO membranes, [3H]-CP-55,940 displacement (Protocol IV); parameters: expressed in transfected cells; host or cells: CHO (hCB2-CHO, generated in-house); conditions: hCB2-CHO membranes, [3H]-CP-55,940 displacement
How it was run: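 Compounds were tested at a single 300 nM final concentration for displacing 0.75 nM [3H]-CP-55,940 from hCB2-CHO membranes (1 h, 30 °C, 50 mM Tris pH 7.4, 5 mM MgCl2, 1 mM EDTA, 0.1% BSA). Filter-bound radioactivity was counted, with 0.5 μM unlabelled CP-55,940 for nonspecific binding; results are % displacement.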

[2] = target: hCB1 (Homo sapiens, UniProt P21554); assay: In vitro binding assay using hCB1-CHO membranes, [3H]-CP-55,940 displacement (Protocol II); parameters: expressed in transfected cells; host or cells: CHO (hCB1-CHO, generated in-house)
Experimental: II. Protocol for In Vitro Assay Using hCB1-CHO Membranes
The reaction was set up in a total volume of 200 μl in PEI (Poly(ethyleneimine)) (0.2%) precoated Millipore GFB (Glass Fibre-B) filter plates. 1 mM stocks of test compounds were prepared in DMSO and tested at a final concentration of 300 nM. The non-specific binding was determined by 0.5 μM CP-55, 940. […] The assay mixture (with or without the test compound) was incubated at 37° C. for 1 hour. The reaction was stopped by rapid filtration under vacuum and the radioactivity on the filters was measured by liquid scintillation counting.

[3] = target: CB1 (Rattus norvegicus, UniProt P20272); assay: Rat CB1 receptor binding using brain membrane, [3H]SR141716A displacement (Protocol I); parameters: CB1 receptor present in a rat brain membrane preparation; from tissue; host or cells: rat brain membrane; conditions: rat brain membrane, [3H]SR141716A displacement
CB1, sequence (P20272 whole entry): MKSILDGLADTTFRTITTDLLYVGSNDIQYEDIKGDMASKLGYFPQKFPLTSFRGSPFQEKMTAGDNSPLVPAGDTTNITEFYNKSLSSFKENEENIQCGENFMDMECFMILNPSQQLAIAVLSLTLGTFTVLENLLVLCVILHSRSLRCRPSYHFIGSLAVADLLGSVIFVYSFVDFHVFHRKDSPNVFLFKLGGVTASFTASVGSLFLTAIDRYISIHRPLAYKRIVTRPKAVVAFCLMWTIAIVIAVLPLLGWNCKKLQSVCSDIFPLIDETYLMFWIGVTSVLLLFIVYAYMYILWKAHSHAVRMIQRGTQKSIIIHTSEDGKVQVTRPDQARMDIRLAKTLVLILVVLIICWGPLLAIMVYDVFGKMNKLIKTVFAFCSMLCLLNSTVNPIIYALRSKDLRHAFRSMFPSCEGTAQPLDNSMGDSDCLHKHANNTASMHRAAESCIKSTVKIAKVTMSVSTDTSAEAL

hCB2, sequence (P34972 whole entry): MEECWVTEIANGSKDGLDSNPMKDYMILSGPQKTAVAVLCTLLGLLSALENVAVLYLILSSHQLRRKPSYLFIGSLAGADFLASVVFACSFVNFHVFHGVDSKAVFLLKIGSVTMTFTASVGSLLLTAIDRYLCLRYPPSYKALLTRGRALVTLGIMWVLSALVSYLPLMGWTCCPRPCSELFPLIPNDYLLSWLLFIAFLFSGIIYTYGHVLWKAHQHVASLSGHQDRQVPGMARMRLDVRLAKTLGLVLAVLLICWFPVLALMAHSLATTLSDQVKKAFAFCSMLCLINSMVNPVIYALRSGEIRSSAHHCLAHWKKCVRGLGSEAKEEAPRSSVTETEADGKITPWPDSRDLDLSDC
hCB1, sequence (P21554 whole entry): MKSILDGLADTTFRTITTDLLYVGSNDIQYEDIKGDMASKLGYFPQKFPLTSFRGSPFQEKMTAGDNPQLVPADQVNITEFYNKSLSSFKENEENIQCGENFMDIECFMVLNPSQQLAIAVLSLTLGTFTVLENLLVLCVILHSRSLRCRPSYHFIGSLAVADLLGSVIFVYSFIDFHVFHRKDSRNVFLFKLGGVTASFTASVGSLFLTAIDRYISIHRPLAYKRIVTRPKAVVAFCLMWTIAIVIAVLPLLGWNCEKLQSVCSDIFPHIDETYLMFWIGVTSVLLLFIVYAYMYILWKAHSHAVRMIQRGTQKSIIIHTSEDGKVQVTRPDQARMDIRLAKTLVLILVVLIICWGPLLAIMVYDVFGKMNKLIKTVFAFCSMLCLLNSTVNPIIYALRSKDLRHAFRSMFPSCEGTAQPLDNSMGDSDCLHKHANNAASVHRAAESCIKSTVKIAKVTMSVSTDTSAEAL

Compound | % Displacement Protocol IV [1] | % Displacement Protocol II [2] | % Displacement Protocol I [3]
O=C(NN1CCCCC1)c1nn(-c2ccccc2Br)c2c1C1CC3CC(C1)CC2C3 [Example 101, N(7)-Piperidino-5-(2-bromophenyl)-5,6-diazatetracyclo[7.3.1.1^3,110^4,8]tetradeca-4(8),6-diene-7-carboxamide] | 0% | 5.75% | 28.8%
O=C(NCc1ccc(Cl)cc1)c1nn(-c2ccc(Cl)cc2)c2c1C1CC3CC(C1)CC2C3 [Example 112, N(7)-(4*Chlorobenzyl)-5-(4-chlorophenyl)-5,6-diazatetracyclo[7.3.1.1^3,11.0^4,8]tetradeca-4(8)-6-diene-7-carboxamide] |  | 25.76% | 59.9%
O=C(NCc1ccc(F)cc1)c1nn(-c2ccc(Cl)cc2)c2c1C1CC3CC(C1)CC2C3 [Example 113, N(7)-(4-Fluorobenzyl)-5-(4-chlorophenyl)-5,6-diazatetracyclo[7.3.1.1^3,11.0^4,8]tetradeca-4(8)-6-diene-7-carboxamide] | 17.02% | 27.70% | 55.9%
O=C(NNc1ccc(Cl)cc1)c1nn(-c2ccc(Cl)cc2)c2c1C1CC3CC(C1)CC2C3 [Example 125] | 5.04% | 22.07% | 52.7%
CN(NC(=O)c1nn(-c2ccc(Cl)cc2)c2c1C1CC3CC(C1)CC2C3)c1ccc(Cl)cc1Cl.Cl [Example 128] |  | 37.28% | 83%
O=C(NCCc1ccccc1)c1nn(-c2ccc(Cl)cc2)c2c1C1CC3CC(C1)CC2C3 [Example 136, N(7)-(2-Phenylethyl)-5-(4-chlorophenyl)-5,6-diazatetracyclo[7.3.1.1^3,11.0^4,8]tetradeca-4(8)-6-diene-7-carboxamide] | 15.44% | 1.01% | 31.3%
O=C(NC12CC3CC(CC(C3)C1)C2)c1nn(-c2ccc(F)cc2)c2c1C1CC3CC(C1)CC2C3 [Example 158, N(7)-(Adamantan-1-yl)-5-(4-fluorophenyl)-5,6-diazatetracyclo[7.3.1.1^3,11.0^4,8]tetradeca-4(8)-6-diene-7-carboxamide] | 95.4% | 70.12% | 
O=C(Nc1ccccc1)c1nn(-c2ccccc2)c2c1C1CC3CC(C1)CC2C3 [Example 168, N(7)-Phenyl-5-phenyl-5,6-diazatetracyclo[7.3.1.1^3,11.0^4,8]tetradeca-4(8)-6-diene-7-carboxamide] |  | 11.47% | 37%
O=C(NN1CCCCC1)c1nn(-c2ccccc2)c2c1C1CC3CC(C1)CC2C3 [Example 169, N(7)-piperidino-5-phenyl-5,6-diazatetracyclo[7.3.1.1^3,11.0^4,8]tetradeca-4(8)-6-diene-7-carboxamide] |  | 29.65% | 19%
O=C(c1nn(-c2ccccc2)c2c1C1CC3CC(C1)CC2C3)N1CCCCC1 [Example 171, N(7)-phenyl-6,7-diazatetracyclo[7.3.1.1^3,11.0^4,8]tetradeca-4(8)-5-dien-5-yl-piperidino methanone] | 0.56% | 19.37% | 0%
O=C(NCc1ccccc1)c1nn(-c2ccccc2Cl)c2c1C1CC3CC(C1)CC2C3 [Example 182, N(7)-Benzyl-5-(2-chlorophenyl)-5,6-diazatetracyclo[7.3.1.1^3,11.0^4,8]tetradeca-4(8)-6-diene-7-carboxamide] | 12.78% | 19.35% | 39.9%
O=C(NN1CCCCC1)c1n[nH]c2c1C1CC3CC(CC2C3)C1 [Example 187, N(7)-Piperidino-5,6-diazatetracyclo[7.3.1.1^3,11.0^4,8]tetradeca-4(8)-6-diene-7-carboxamide] | 0.7% | 15.66% | 6.0%
CCCCCn1nc(C(=O)NC(C)(C)c2ccccc2)c2c1C1CC3CC(CC2C3)C1 [Example 190b, N(7)-(1-Methyl-1-phenylethyl)-5-pentyl-5,6-diazatetracyclo[7.3.1.1^3,11.0^4,8]tetradeca-4(8)-6-diene-7-carboxamide] | 96.07% | 100% | 
O=C(NCc1ccc(C(F)(F)F)cc1)c1nn(-c2ccc(Cl)cc2)c2c1C1CCC2C1 (stereo not shown) [Example 227, N(3)-(4-Trifluoromethylbenzyl)-1-(4-chlorophenyl)-4,5,6,7-tetrahydro-H-4,7-methano-indazole-3-carboxamide] |  | 3.51% | 25.3%
O=C(NNc1ccc(Cl)c(Cl)c1)c1nn(-c2ccc(Cl)cc2)c2c1C1CCC2C1 (stereo not shown) [Example 231, N(3)-[(3,4-Dichlorophenyl)amino]-1-(4-chlorophenyl)-4,5,6,7-tetrahydro-H-4,7-methano-indazole-3-carboxamide] |  | 30.79% | 31.9%
COC(=O)[C@@H](NC(=O)c1nn(-c2ccc(F)cc2F)c2c1C1CCC2C1)c1ccccc1 (stereo partly drawn) [Example 301, Methyl(2S)-2-[5-(2,4-difluorophenyl)-4,5-diazatricyclo[5.2.1.0.^2,6]deca-2(6),3-dien-3-ylcarboxamido]-2-phenylethanoate] | 82.09% | 82.54% | 
O=C(NN1CCOCC1)c1nn(-c2ccc(F)cc2F)c2c1C1CCC2C1 (stereo not shown) [Example 312, 4-[5-(2,4-Difluorophenyl)-4,5-diazatricyclo[5.2.1.0^2,6]deca-2(6),3-dien-3-ylcarboxamido]morpholine] | 4.47% | 10.97% | 
COC(=O)[C@H](NC(=O)c1nn(-c2ccc(F)cc2F)c2c1C1CCC2C1)c1ccccc1 (stereo partly drawn) [Example 319, Methyl (2R)-2-[5-(2,4-difluorophenyl)-4,5-diazatricyclo[5.2.1.0.^2,6]deca-2(6),3-dien-3-ylcarboxamido]-2-phenylethanoate] | 86.68% | 88.02% | 
COC(=O)[C@@H](NC(=O)c1nn(-c2ccc(F)cc2F)c2c1C1CCC2C1)c1ccc(F)cc1 (stereo partly drawn) [Example 326, Methyl (2S)-2-[5-(2,4-difluorophenyl)-4,5-diazatricyclo[5.2.1.0.^2,6]deca-2(6),3-dien-3-ylcarboxamido]-2-(4-fluorophenyl)ethanoate] | 99.18% | 73.99% | 
CC(C)(NC(=O)c1nn(-c2ccc(F)cc2F)c2c1C1CCC2(C)C1(C)C)c1ccccc1 (stereo not shown) [Example 407] | 88.44% | 87.28% | 
CN(NC(=O)c1nn(-c2ccc(Cl)cc2Cl)c2c1C1CCC2c2ccccc21)C1CCCCC1 (stereo not shown) [Example 504, N(12)-[(N′-Cyclohexyl-N′-methyl)amino]-10-(2,4-dichlorophenyl)-10,11-diazatetracyclo[6.5.2.0^2,7.0^9,13]pentadeca-2,4,6,9(13),11-pentaene-12-carboxamide] |  | 62.9% | 79.7%
